This is an account of results in patent publication US10689344B2, “Biphenylamide derivative Hsp90 inhibitors” (University of Kansas, priority 2013, dated 2020).

The IC50 is the concentration needed to halve the response being measured.

Test [1] deals with MCF-7 (estrogen receptor positive breast cancer cells). Kind of test: Anti-proliferation assay (MTS/PMS, 72 h), MCF-7. It counts as cell-based. As to conditions: Homo sapiens. Put shortly: (§1)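 Cells seeded at 2000/well, attached overnight, then exposed to compound at varying concentrations (1% DMSO final) for 72 h at 37° C, 5% CO2. Viability by MTS/PMS, normalised to 1% DMSO controls as 100% proliferation; IC50 from separate triplicate experiments.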

Test [2] concerns SKBr3 (estrogen receptor negative, HER2 over-expressing breast cancer cells). In words: Anti-proliferation assay (MTS/PMS, 72 h), SKBr3. The format is cell-based. The note with it: Homo sapiens. In a few lines: as §1
Where [3] appears, read: MCF7, Table 3, substituted para-para biphenyl core.
The mark [4] stands for this setting: SK-BR-3, Table 3, substituted para-para biphenyl core.
Where [5] appears, read: MCF7, Table 6, para-para biphenyl core with substituted benzylamide.
Where [6] appears, read: SK-BR-3, Table 6, para-para biphenyl core with substituted benzylamide.
[7] abbreviates: MCF7, Table 8, para-para biphenyl core with substituted biphenylamide group.
Setting [8] is: SK-BR-3, Table 8, para-para biphenyl core with substituted biphenylamide group.
Where [9] appears, read: MCF7, Table 2, para-meta biphenyl core with substituted benzylamide.
The mark [10] stands for this setting: SK-BR-3, Table 2, para-meta biphenyl core with substituted benzylamide.

Turning to `COc1cccc(-c2cc(C(=O)Nc3ccc(-c4ccc(OC5CCN(C)CC5)c(C#N)c4)cc3)ccc2OC)c1` [Compound 29m, N-(3′-cyano-4′-((1-methylpiperidin-4-yl)oxy)-[1,1′-biphenyl]-4-yl)-3′,6-dimethoxy-[1,1′-biphenyl]-3-carboxamide], the IC50 in test [1] (setting [3]) came out at 3700 ± 610 nM; in test [2] (setting [4]), 2770 ± 1160 nM.

For `COc1cccc(-c2cc(C(=O)Nc3ccc(-c4ccc(OC5CCN(C)CC5)cc4)cc3[N+](=O)[O-])ccc2OC)c1` [Compound 34d, 3′,6-dimethoxy-N-(4′-((1-methylpiperidin-4-yl)oxy)-3-nitro-[1,1′-biphenyl]-4-yl)-[1,1′-biphenyl]-3-carboxamide], the IC50 in test [1] (setting [3]) was found to be 1150 ± 10 nM; in test [2] (setting [4]) it was 920 nM.

Turning to `CN1CCC(Oc2ccc(-c3ccc(NC(=O)c4cc5ccccc5s4)cc3)cc2)CC1` [Compound 47b, N-(4′-((1-methylpiperidin-4-yl)oxy)-[1,1′-biphenyl]-4-yl)benzo[b]thiophene-2-carboxamide], the IC50 is 2010 ± 580 nM in test [1] (setting [5]) and 1320 ± 230 nM in test [2] (setting [6]).

For `COc1cccc(-c2cc(C(=O)Nc3ccc(-c4ccc(OC5CCN(C)CC5)c(N)c4)cc3)ccc2OC)c1` [Compound 38a, N-(3′-amino-4′-((1-methylpiperidin-4-yl)oxy)-[1,1′-biphenyl]-4-yl)-3′,6-dimethoxy-[1,1′-biphenyl]-3-carboxamide], the IC50 in test [1] (setting [3]) is 5950 ± 1220 nM; in test [2] (setting [4]), 2230 ± 490 nM.

As for `COc1cccc(-c2cc(C(=O)Nc3ccc(-c4ccc(OC5CCN(C)CC5)c(C)c4)cc3)ccc2OC)c1` [Compound 29a, 3′,6-dimethoxy-N-(3′-methyl-4′-((1-methylpiperidin-4-yl)oxy)-[1,1′-biphenyl]-4-yl)-[1,1′-biphenyl]-3-carboxamide], the IC50 in test [1] (setting [3]) is 1690 ± 80 nM; in test [2] (setting [4]), 830 ± 30 nM.

On to `COc1ccc(C(=O)Nc2ccc(-c3ccc(OC4CCN(C)CC4)cc3)cc2)cc1-c1cccc(Cl)c1` [Compound 49f, 3′-chloro-6-methoxy-N-(4′-((1-methylpiperidin-4-yl)oxy)-[1,1′-biphenyl]-4-yl)-[1,1′-biphenyl]-3-carboxamide], for which the half-inhibitory concentration (IC50) in test [1] (setting [7]) was determined as 320 ± 90 nM; in test [2] (setting [8]), 330 ± 30 nM.

As for `Cc1ccc(C(=O)Nc2cccc(-c3ccc(OC4CCN(C)CC4)cc3)c2)cc1` [Compound 6c, 4-methyl-N-(4′-((1-methylpiperidin-4-yl)oxy)-[1,1′-biphenyl]-3-yl)benzamide], the values for the concentration for half-maximal inhibition (IC50) in test [1] (setting [9]) and in test [2] (setting [10]) were 3920 ± 130 nM and 5270 nM, respectively.

For `COc1ccc(-c2cc(C(=O)Nc3ccc(-c4ccc(OC5CCN(C)CC5)cc4)cc3)ccc2OC)cc1` [Compound 49c, 4′,6-dimethoxy-N-(4′-((1-methylpiperidin-4-yl)oxy)-[1,1′-biphenyl]-4-yl)-[1,1′-biphenyl]-3-carboxamide], the half-inhibitory concentration (IC50) in test [1] (setting [7]) was found to be 790 ± 130 nM; in test [2] (setting [8]), 630 ± 40 nM.

For the molecule `CN1CCC(Oc2ccc(-c3ccc(NC(=O)c4cccc(Cl)c4)cc3)cc2)CC1` [Compound 41h, 3-chloro-N-(4′-((1-methylpiperidin-4-yl)oxy)-[1,1′-biphenyl]-4-yl)benzamide], the concentration for half-maximal inhibition (IC50) was 2830 ± 690 nM in test [1] (setting [5]) and 1940 ± 370 nM in test [2] (setting [6]).

As for `CN1CCC(Oc2ccc(-c3cccc(NC(=O)c4ccccc4)c3)cc2)CC1` [Compound 6b, N-(4′-((1-methylpiperidin-4-yl)oxy)-[1,1′-biphenyl]-3-yl)benzamide], the IC50 is 12000 ± 570 nM in test [1] (setting [9]) and 18900 ± 950 nM in test [2] (setting [10]).

Take `COc1ccc(C(=O)Nc2ccc(-c3ccc(OC4CCN(C)CC4)cc3)cc2)cc1-c1cccc([N+](=O)[O-])c1` [Compound 49h, 6-methoxy-N-(4′-((1-methylpiperidin-4-yl)oxy)-[1,1′-biphenyl]-4-yl)-3′-nitro-[1,1′-biphenyl]-3-carboxamide]: the IC50 in test [1] (setting [7]) came to 1090 ± 280 nM; in test [2] (setting [8]) it was 400 ± 70 nM.

For `COc1cccc(-c2cc(C(=O)Nc3ccc(-c4ccc(OC5CC6CCC(C5)N6C)cc4)cc3)ccc2OC)c1` [Compound 56b, 3′,6-dimethoxy-N-(4′-(((1R,3s,5S)-8-methyl-8-azabicyclo[3.2.1]octan-3-yl)oxy)-[1,1′-biphenyl]-4-yl)-[1,1′-biphenyl]-3-carboxamide], the IC50 was 1320 ± 230 nM in test [1] (MCF7, Table 7, para-para biphenyl core with modified ether groups) and 1670 ± 600 nM in test [2] (SK-BR-3, Table 7, para-para biphenyl core with modified ether groups).

Turning to `COc1cccc(-c2cc(C(=O)Nc3ccc(-c4ccc(OC5CCN(C)CC5)cc4[N+](=O)[O-])cc3)ccc2OC)c1` [Compound 34b, 3′,6-dimethoxy-N-(4′-((1-methylpiperidin-4-yl)oxy)-2′-nitro-[11′-biphenyl]-4-yl)-[1,1′-biphenyl]-3-carboxamide], the IC50 in test [1] (setting [3]) amounted to 1300 ± 120 nM; in test [2] (setting [4]), 1070 nM.

As to `CN1CCC(Oc2ccc(-c3cccc(NC(=O)c4ccccc4Cl)c3)cc2)CC1` [Compound 6k, 2-Chloro-N-(4′-((1-methylpiperidin-4-yl)oxy)-[1,1′-biphenyl]-3-yl)benzamide], the IC50 in test [1] (setting [9]) worked out at 5170 ± 490 nM; in test [2] (setting [10]), 7870 ± 480 nM.

For the molecule `COc1cccc(-c2cc(NC(=O)Nc3ccc(-c4ccc(OC5CCN(C)CC5)cc4)cc3)ccc2OC)c1` [Compound 52, 1-(3′,6-dimethoxy-[1,1′-biphenyl]-3-yl)-3-(4′-((1-methylpiperidin-4-yl)oxy)-[1,1′-biphenyl]-4-yl)urea], the IC50 in test [1] (MCF7, Table 5, modified linkers in para-para biphenyl core) amounted to 1260 ± 130 nM; in test [2] (SK-BR-3, Table 5, modified linkers in para-para biphenyl core) it was 910 ± 80 nM.

Turning to `Cc1ccc(C(=O)Nc2ccc(-c3ccc(OC4CCN(C)CC4)cc3)cc2)cc1-c1cccc(Cl)c1` [Compound 49k], the IC50 in test [1] (setting [7]) is 1600 ± 110 nM; in test [2] (setting [8]), 3160 ± 370 nM.

For `CN1CCC(Oc2ccc(-c3ccc(NC(=O)c4ccc5ncccc5c4)cc3)cc2)CC1` [Compound 45b, N-(4′-((1-methylpiperidin-4-yl)oxy)-[1,1′-biphenyl]-4-yl)quinoline-6-carboxamide], the results for the IC50 in test [1] (setting [5]) and in test [2] (setting [6]) were 2070 ± 160 nM and 1310 ± 180 nM, respectively.

Turning to `CN1CCC(Oc2ccc(-c3cccc(NC(=O)c4cc(Cl)cc(Cl)c4)c3)cc2)CC1` [Compound 6o, 3,5-Dichloro-N-(4′-((1-methylpiperidin-4-yl)oxy)-[1,1′-biphenyl]-3-yl)benzamide], the half-inhibitory concentration (IC50) in test [1] (setting [9]) was 3720 ± 150 nM; in test [2] (setting [10]), 4230 ± 90 nM.

On to `CN1CCC(Oc2ccc(-c3ccc(NC(=O)c4cc(Cl)cc(Cl)c4)cc3)cc2)CC1` [Compound 41o, 3,5-dichloro-N-(4′-((1-methylpiperidin-4-yl)oxy)-[1,1′-biphenyl]-4-yl)benzamide], for which the IC50 in test [1] (setting [5]) is 1680 ± 130 nM; in test [2] (setting [6]), 810 ± 280 nM.

Consider `CN1CCC(Oc2cccc(-c3cccc(NC(=O)C45CC6CC(CC(C6)C4)C5)c3)c2)CC1` [Compound 61b, N-(3′-((1-methylpiperidin-4-yl)oxy)-[1,1′-biphenyl]-3-yl)adamantane-1-carboxamide], for which the IC50 in test [1] (MCF7, Table 1, ortho, meta and para biphenyl cores) was determined as 2070 ± 90 nM; in test [2] (SK-BR-3, Table 1, ortho, meta and para biphenyl cores) it was 2600 ± 710 nM.

As for `CN1CCC(Oc2ccc(-c3ccc(NC(=O)c4ccc(-c5ccccc5)cc4)cc3)cc2)CC1` [Compound 41s, N-(4′-((1-methylpiperidin-4-yl)oxy)-[1,1′-biphenyl]-4-yl)-[1,1′-biphenyl]-4-carboxamide], the IC50 in test [1] (setting [5]) was 4440 ± 600 nM; in test [2] (setting [6]), 4590 ± 60 nM.

`COc1cccc(-c2cc(C(=O)Nc3ccc(-c4ccc(OC5CCN(C)CC5)cc4C)cc3)ccc2OC)c1` [Compound 29b, 3′,6-dimethoxy-N-(2′-methyl-4′-((1-methylpiperidin-4-yl)oxy)-[1,1′-biphenyl]-4-yl)-[1,1′-biphenyl]-3-carboxamide]: the IC50 came out at 1210 ± 30 nM in test [1] (setting [3]) and 1180 ± 110 nM in test [2] (setting [4]).

For `COc1cccc(-c2cc(C(=O)Nc3ccc(-c4ccc(OC5CCN(C)CC5)cc4OC)cc3)ccc2OC)c1` [Compound 29f, 3′,6-dimethoxy-N-(2′-methoxy-4′-((1-methylpiperidin-4-yl)-oxy)-[1,1′-biphenyl]-4-yl)-[1,1′-biphenyl]-3-carboxamide], the half-inhibitory concentration (IC50) in test [1] (setting [3]) was 1350 ± 160 nM; in test [2] (setting [4]) it was 1410 ± 350 nM.

For the molecule `CN1CCC(Oc2ccc(-c3ccc(NC(=O)c4ccccc4)cc3)cc2)CC1` [Compound 41a, N-(4′-((1-methylpiperidin-4-yl)oxy)-[1,1′-biphenyl]-4-yl)benzamide], the values for the IC50 in test [1] (setting [5]) and in test [2] (setting [6]) were 3950 ± 130 nM and 4130 ± 220 nM, respectively.

As to `CN1CCC(Oc2ccc(-c3cccc(NC(=O)c4cccc(Cl)c4)c3)cc2)CC1` [Compound 6i, 3-Chloro-N-(4′-((1-methylpiperidin-4-yl)oxy)-[1,1′-biphenyl]-3-yl)benzamide], the IC50 in test [1] (setting [9]) amounted to 2110 ± 420 nM; in test [2] (setting [10]) it was 4290 ± 430 nM.

For the molecule `COc1cccc(-c2cc(C(=O)Nc3ccc(-c4ccc(OC5CCN(C)CC5)cc4)cc3OC)ccc2OC)c1` [Compound 29h, 3′,6-dimethoxy-N-(3-methoxy-4′-((1-methylpiperidin-4-yl)oxy)-[1,1′-biphenyl]-4-yl)-[1,1′-biphenyl]-3-carboxamide], the results for the IC50 in test [1] (setting [3]) and in test [2] (setting [4]) were 1220 ± 40 nM and 3920 ± 210 nM, respectively.
